Patent US20240182445A1 (ONO PHARMACEUTICAL CO., LTD., priority 2019, published 2024)

Columns and labels:
human TREK-1 [1] = target: T1, human TREK-1 (Homo sapiens, UniProt O95069); assay: TREK-1 Thallium (Tl+) flux assay, Method 1; format: cell-based; settings: TREK-1 Thallium (Tl+) flux assay
T1 construct: expressed in transfected cells
T1 sequence (O95069 1-426): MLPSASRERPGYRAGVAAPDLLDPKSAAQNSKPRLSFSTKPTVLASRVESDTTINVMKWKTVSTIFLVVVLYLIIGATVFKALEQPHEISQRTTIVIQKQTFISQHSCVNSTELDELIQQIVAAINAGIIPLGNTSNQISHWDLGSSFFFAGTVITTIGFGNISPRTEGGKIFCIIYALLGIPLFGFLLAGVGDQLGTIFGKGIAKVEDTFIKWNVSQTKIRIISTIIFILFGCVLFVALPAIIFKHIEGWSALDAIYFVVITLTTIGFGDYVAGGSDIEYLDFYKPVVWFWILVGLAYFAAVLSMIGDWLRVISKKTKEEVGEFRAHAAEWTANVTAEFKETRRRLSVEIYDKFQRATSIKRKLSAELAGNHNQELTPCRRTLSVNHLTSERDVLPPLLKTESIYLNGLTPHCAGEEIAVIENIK
Method in brief: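 Readout: Thallos fluorescence ratio, taken 25 s post-thallium relative to the pre-thallium baseline average, then converted to % inhibition. Cells were CHO-K1 stably expressing human TREK-1, dye-loaded and exposed to test compound (vehicle 0.3% DMSO) for 10 min prior to thallium stimulation.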

human TREK-1 [2] = target: T1, human TREK-1; assay: TREK-1 Manual Patch Clamp (hMPC) assay; format: cell-based; settings: CHO-K1 cells stably expressing human TREK-1; whole-cell current at 0 mV
Method: The term “patch clamp technique” herein refers to the “gold standard” technique for evaluating TREK channel pharmacology. The detail method is described below.
CHO-K1 cells stably expressing human TREK-1 or HEK293 cells stably expressing human TREK-2 are plated on glass coverslips, and voltage clamped in the whole-cell configuration of the patch clamp technique. Cells were voltage clamped at a holding potential of −80 mV and the stepped to 0 mV for 500 msec. The voltage was subsequently ramped from −120 mV to +80 mV over a 500 msec duration. This step-ramp protocol was repeated every 10 sec. The bathing solution contained the following: 135 mM NaCl, 5 mM KCl, 2 mM CaCl2, 1 mM MgCl2, 5 mM D-Glucose, 10 mM HEPES, 10 mM sucrose (adjusted to pH 7.4 with NaOH, 300 mosmol/kg H2O). The pipette solution contained the following: 135 mM KCl, 2 mM MgCl2, 1 mM EGTA, 10 mM HEPES, 2 mM Na2ATP (adjusted to pH 7.35 with KOH, 285 mosmol/kg H2O). Test compounds were dissolved into the bathing solution. Experiments on TREK-2 were terminated with the addition of the control compound (tert-butyl (3-((4-(benzyloxy)-2-methylphenyl)carbamoyl)-4-chlorophenyl)carbamate) so that maximal inhibition could be determined. The effects of test compound on the currents were calculated at 0 mV using the following equations:
For CHO cells expressing TREK-1 channel: % inhibition=(1-post current/pre current)×100
The compounds shown in Table 2 were prepared in an analogous manner with the appropriate starting materials, and evaluated in our TREK-1 Manual Patch Clamp (hMPC) assay.

[3] = no *^12 (Method 2) mark on these rows
[4] = values without footnote *12 are Method 1

Row | Compound | IC50 (human TREK-1 [1]; [3]) [nM] | IC50 (human TREK-1 [2]) [nM] | IC50 (human TREK-1 [1]; [4]) [nM] | IC50 (human TREK-1 [1]; Method 1) [nM]
1 | CC(=O)N1CC(F)(Cn2ncc(Cl)c2C(=O)Nc2ncc(C#Cc3ccccc3)cc2C)C1 [Compound 215, 1-((1-acetyl-3-fluoroazetidin-3-yl)methyl)-4-chloro-N-(3-methyl-5-(phenylethynyl)pyridin-2-yl)-1H-pyrazole-5-carboxamide] | 330 | 130 |  | 
2 | Cc1cc(C#Cc2ccccc2)cnc1NC(=O)c1c(Cl)cnn1CC1COCCO1 (stereo not drawn) [Compound 1, 1-((1,4-dioxan-2-yl)methyl)-4-chloro-N-(3-methyl-5-(phenylethynyl)pyridin-2-yl)-1H-pyrazole-5-carboxamide] |  | 170 | 670 | 
3 | Cc1cc(C#Cc2ccccc2)cnc1NC(=O)c1c(Cl)cnn1[C@@H]1CCOC1 [Compound 3, (R)-4-chloro-N-(3-methyl-5-(phenylethynyl)pyridin-2-yl)-1-(tetrahydrofuran-3-yl)-1H-pyrazole-5-carboxamide] |  | 530 | 360 | 
4 | CC(=O)N1CCC(F)(Cn2ncc(Cl)c2C(=O)Nc2ncc(C#Cc3ccccc3)cc2C)CC1 [Compound 15, 1-((1-acetyl-4-fluoropiperidin-4-yl)methyl)-4-chloro-N-(3-methyl-5-(phenylethynyl)pyridin-2-yl)-1H-pyrazole-5-carboxamide] |  | 290 | 400 | 
5 | CC(=O)N[C@H]1CC[C@@H](n2ncc(Cl)c2C(=O)Nc2ncc(C#Cc3ccc(F)cc3)cc2C)CC1 [Compound 14, 1-(cis-4-acetamidocyclohexyl)-4-chloro-N-(5-((4-fluorophenyl)ethynyl)-3-methylpyridin-2-yl)-1H-pyrazole-5-carboxamide] |  | 2 | 260 | 
6 | CC(=O)N1CCC(n2ncc(Cl)c2C(=O)Nc2ncc(-c3ccc(C(F)(F)F)cc3)cc2C)CC1 [Compound 427, 1-(1-acetylpiperidin-4-yl)-4-chloro-N-(3-methyl-5-(4-(trifluoromethyl)phenyl)pyridin-2-yl)-1H-pyrazole-5-carboxamide] |  |  |  | 5210
7 | CCC(=O)N[C@H]1CC[C@@H](n2ncc(Cl)c2C(=O)Nc2ccc(OCc3ccccc3)cc2C)CC1 [Compound 392, N-(4-(benzyloxy)-2-methylphenyl)-4-chloro-1-(cis-4-propionamidocyclohexyl)-1H-pyrazole-5-carboxamide] |  |  |  | 1260
8 | O=C(Nc1ncc(C#Cc2ccccc2)cc1F)c1c(Cl)cnn1[C@H]1CCOC1 [Compound 275, (S)-4-chloro-N-(3-fluoro-5-(phenylethynyl)pyridin-2-yl)-1-(tetrahydrofuran-3-yl)-1H-pyrazole-5-carboxamide] | 480 |  |  | 
9 | CC(=O)N1C[C@H]2C[C@H](n3ncc(Cl)c3C(=O)Nc3ncc(C#Cc4ccc(F)cc4)cc3C)C[C@H]2C1 [Compound 331, 1-[(3aR,5s,6aS)-2-acetyloctahydrocyclopenta[c]pyrrol-5-yl]-4-chloro-N-{5-[(4-fluorophenyl)ethynyl]-3-methylpyridin-2-yl}-1H-pyrazole-5-carboxamide] | 660 |  |  | 
10 | Cc1cc(C#Cc2ccccc2)cnc1NC(=O)c1c(Cl)cnn1[C@H]1C[C@@H]2CN(C(=O)C(C)C)C[C@@H]2C1 [Compound 317, 4-chloro-N-[3-methyl-5-(phenylethynyl)pyridin-2-yl]-1-[(3aR,5s,6aS)-2-(2-methylpropanoyl)octahydrocyclopenta [c]pyrrol-5-yl]-1H-pyrazole-5-carboxamide] | 610 |  |  | 

Now from value to molecule:

Row | IC50 (human TREK-1 [1]; [3]) [nM] | IC50 (human TREK-1 [2]) [nM] | IC50 (human TREK-1 [1]; [4]) [nM] | IC50 (human TREK-1 [1]; Method 1) [nM] | Compound
11 |  | 60 | 110 |  | CC(=O)N1CCC(n2ncc(Cl)c2C(=O)Nc2ncc(C#Cc3ccc(F)cc3)cc2C)[C@H](F)C1 (stereo in doubt) [Compound 10, 1-((3R,4R)-1-acetyl-3-fluoropiperidin-4-yl)-4-chloro-N-(5-((4-fluorophenyl)ethynyl)-3-methylpyridin-2-yl)-1H-pyrazole-5-carboxamide]
12 |  | 30 | 140 |  | CC(=O)N1CCC(n2ncc(Cl)c2C(=O)Nc2ncc(C#Cc3ccc(F)cc3)cc2F)CC1 [Compound 7, 1-(1-acetylpiperidin-4-yl)-4-chloro-N-(3-fluoro-5-((4-fluorophenyl)ethynyl)pyridin-2-yl)-1H-pyrazole-5-carboxamide]
13 |  | 100 | 120 |  | O=C(Nc1ncc(C#Cc2ccccc2)cc1F)c1c(Cl)cnn1C1CCN(C(=O)C2COCCO2)CC1 (stereo not drawn) [Compound 11, 1-(1-(1,4-dioxane-2-carbonyl)piperidin-4-yl)-4-chloro-N-(3-fluoro-5-(phenylethynyl)pyridin-2-yl)-1H-pyrazole-5-carboxamide]
14 |  | 90 | 200 |  | CC(=O)N1CCC(n2ncc(Cl)c2C(=O)Nc2ncc(C#Cc3ccc(F)cc3)cc2C)CC1 [Compound 8, 1-(1-acetylpiperidin-4-yl)-4-chloro-N-(5-((4-fluorophenyl)ethynyl)-3-methylpyridin-2-yl)-1H-pyrazole-5-carboxamide]
15 |  | 70 | 70 |  | CC(=O)N1CCC(n2ncc(Cl)c2C(=O)Nc2ncc(C#Cc3ccccc3)cc2F)CC1 [Compound 6, 1-(1-acetylpiperidin-4-yl)-4-chloro-N-(3-fluoro-5-(phenylethynyl)pyridin-2-yl)-1H-pyrazole-5-carboxamide]
16 |  | 160 | 100 |  | CC(=O)N1CCC([C@H](C)n2ncc(Cl)c2C(=O)Nc2ncc(C#Cc3ccccc3)cc2C)CC1 [Compound 16, (S)-1-(1-(1-acetylpiperidin-4-yl)ethyl)-4-chloro-N-(3-methyl-5-(phenylethynyl)pyridin-2-yl)-1H-pyrazole-5-carboxamide]
17 |  | 60 | 120 |  | CC(=O)N[C@H]1CC[C@@H](n2ncc(Cl)c2C(=O)Nc2ncc(C#Cc3ccccc3)cc2F)CC1 [Compound 13, 1-(cis-4-acetamidocyclohexyl)-4-chloro-N-(3-fluoro-5-(phenylethynyl)pyridin-2-yl)-1H-pyrazole-5-carboxamide]
18 |  | 70 | 220 |  | O=C(Nc1ncc(C#Cc2ccccc2)cc1F)c1c(Cl)cnn1C[C@H]1COCCO1 [Compound 4, (S)-1-((1,4-dioxan-2-yl)methyl)-4-chloro-N-(3-fluoro-5-(phenylethynyl)pyridin-2-yl)-1H-pyrazole-5-carboxamide]
19 |  | 130 | 220 |  | CC(=O)N1CC(F)(Cn2ncc(Cl)c2C(=O)Nc2ncc(C#Cc3ccccc3)cc2F)C1 [Compound 140, 1-((1-acetyl-3-fluoroazetidin-3-yl)methyl)-4-chloro-N-(3-fluoro-5-(phenylethynyl)pyridin-2-yl)-1H-pyrazole-5-carboxamide]
20 |  |  | 160 |  | Cc1cc(C#Cc2cccs2)cnc1NC(=O)c1c(Cl)cnn1CC1CCN(C(=O)C(C)C)CC1 [Compound 76, 4-chloro-1-((1-isobutyrylpiperidin-4-yl)methyl)-N-(3-methyl-5-(thiophen-2-ylethynyl)pyridin-2-yl)-1H-pyrazole-5-carboxamide]
21 |  |  | 110 |  | Cc1cc(C#Cc2cccs2)cnc1NC(=O)c1c(Cl)cnn1C1CC2(C1)CN(C(=O)C1CC1)C2 [Compound 36, 4-chloro-1-(2-(cyclopropanecarbonyl)-2-azaspiro[3.3]heptan-6-yl)-N-(3-methyl-5-(thiophen-2-ylethynyl)pyridin-2-yl)-1H-pyrazole 5-carboxamide]
22 |  |  | 100 |  | CC(=O)N1CC[C@@H](n2ncc(Cl)c2C(=O)Nc2ncc(C#Cc3ccccc3)cc2C)[C@H](F)C1 [Compound 30, […]]
